#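 Values below derive from 48-hour exposures of cells grown in 96-well plates, with endpoints linearly interpolated between the two concentrations bracketing the appropriate inhibition level. GI50 is the concentration that inhibits growth by half. The concentration for full growth arrest is given as TGI.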
# Assays:
# Assay in all cases: NCI anticancer screen, dose series, 48 h
# 786-0 renal = tested on: 786-0 renal
# A498 renal = tested on: A498 renal
# A549 NSCLC = tested on: A549 NSCLC
# ACHN renal = tested on: ACHN renal
# BT-549 breast = tested on: BT-549 breast
# CAKI-1 renal = tested on: CAKI-1 renal
# CCRF-CEM leukemia = tested on: CCRF-CEM leukemia
# COLO 205 colon = tested on: COLO 205 colon
# DU-145 prostate = tested on: DU-145 prostate
# EKVX NSCLC = tested on: EKVX NSCLC
# HCC-2998 colon = tested on: HCC-2998 colon
# HCT-116 colon = tested on: HCT-116 colon
# HCT-15 colon = tested on: HCT-15 colon
# HL-60(TB) leukemia = tested on: HL-60(TB) leukemia
# HOP-62 NSCLC = tested on: HOP-62 NSCLC
# HOP-92 NSCLC = tested on: HOP-92 NSCLC
# HS 578T breast = tested on: HS 578T breast
# HT29 colon = tested on: HT29 colon
# IGROV1 ovarian = tested on: IGROV1 ovarian
# K-562 leukemia = tested on: K-562 leukemia
# KM12 colon = tested on: KM12 colon
# LOX IMVI melanoma = tested on: LOX IMVI melanoma
# M14 melanoma = tested on: M14 melanoma
# MALME-3M melanoma = tested on: MALME-3M melanoma
# MCF7 breast = tested on: MCF7 breast
# MDA-MB-231 breast = tested on: MDA-MB-231 breast
# MDA-MB-435 = tested on: MDA-MB-435
# MOLT-4 leukemia = tested on: MOLT-4 leukemia
# NCI-H226 lung = tested on: NCI-H226 lung
# NCI-H23 lung = tested on: NCI-H23 lung
# NCI-H460 lung = tested on: NCI-H460 lung
# NCI-H522 lung = tested on: NCI-H522 lung
# NCI/ADR-RES ovarian = tested on: NCI/ADR-RES ovarian
# OVCAR-3 ovarian = tested on: OVCAR-3 ovarian
# OVCAR-4 ovarian = tested on: OVCAR-4 ovarian
# OVCAR-5 ovarian = tested on: OVCAR-5 ovarian
# OVCAR-8 ovarian = tested on: OVCAR-8 ovarian
# PC-3 prostate = tested on: PC-3 prostate
# RPMI-8226 leukemia = tested on: RPMI-8226 leukemia
# RXF 393 renal = tested on: RXF 393 renal
# SF-268 CNS = tested on: SF-268 CNS
# SF-295 CNS = tested on: SF-295 CNS
# SF-539 CNS = tested on: SF-539 CNS
# SK-MEL-2 melanoma = tested on: SK-MEL-2 melanoma
# SK-MEL-28 melanoma = tested on: SK-MEL-28 melanoma
# SK-MEL-5 melanoma = tested on: SK-MEL-5 melanoma
# SK-OV-3 ovarian = tested on: SK-OV-3 ovarian
# SN12C renal = tested on: SN12C renal
# SNB-19 CNS = tested on: SNB-19 CNS
# SNB-75 CNS = tested on: SNB-75 CNS
# SR leukemia = tested on: SR leukemia
# SW-620 colon = tested on: SW-620 colon
# T-47D breast = tested on: T-47D breast
# TK-10 renal = tested on: TK-10 renal
# U251 CNS = tested on: U251 CNS
# UACC-257 melanoma = tested on: UACC-257 melanoma
# UACC-62 melanoma = tested on: UACC-62 melanoma
smiles,measurement,setting,value
CC(C)c1[nH]nc2c(NCc3ccc(-c4ccccn4)cc3)nc(SCCN(C)C)nc12,GI50,786-0 renal,76.7 nM
same,TGI,786-0 renal,6060 nM
same,GI50,A498 renal,56.3 nM
same,TGI,A498 renal,164 nM
same,TGI,A549 NSCLC,13000 nM
same,GI50,ACHN renal,86.4 nM
same,TGI,ACHN renal,4960 nM
same,GI50,BT-549 breast,19.4 nM
same,TGI,BT-549 breast,217 nM
same,GI50,CAKI-1 renal,370 nM
same,TGI,CAKI-1 renal,19400 nM
same,GI50,CCRF-CEM leukemia,24.6 nM
same,TGI,CCRF-CEM leukemia,4870 nM
same,GI50,COLO 205 colon,< 15 nM
same,TGI,COLO 205 colon,29.7 nM
same,GI50,DU-145 prostate,138 nM
same,TGI,DU-145 prostate,12400 nM
same,GI50,EKVX NSCLC,49.4 nM
same,TGI,EKVX NSCLC,2540 nM
same,GI50,HCC-2998 colon,< 18.5 nM
same,TGI,HCC-2998 colon,844 nM
same,GI50,HCT-116 colon,35.7 nM
same,TGI,HCT-116 colon,10800 nM
same,GI50,HCT-15 colon,87.2 nM
same,TGI,HCT-15 colon,10900 nM
same,GI50,HL-60(TB) leukemia,< 15.6 nM
same,TGI,HL-60(TB) leukemia,31.3 nM
same,GI50,HOP-62 NSCLC,< 17.7 nM
same,TGI,HOP-62 NSCLC,236 nM
same,GI50,HOP-92 NSCLC,58.5 nM
same,TGI,HOP-92 NSCLC,468 nM
same,GI50,HS 578T breast,27.1 nM
same,TGI,HS 578T breast,9400 nM
same,GI50,HT29 colon,< 15.8 nM
same,TGI,HT29 colon,1210 nM
same,GI50,IGROV1 ovarian,57.9 nM
same,TGI,IGROV1 ovarian,13700 nM
same,GI50,K-562 leukemia,< 21 nM
same,TGI,K-562 leukemia,10300 nM
same,GI50,KM12 colon,< 15.9 nM
same,TGI,KM12 colon,6070 nM
same,GI50,LOX IMVI melanoma,123 nM
same,TGI,LOX IMVI melanoma,11100 nM
same,GI50,M14 melanoma,< 13.3 nM
same,TGI,M14 melanoma,122 nM
same,GI50,MALME-3M melanoma,98.6 nM
same,TGI,MALME-3M melanoma,642 nM
same,GI50,MCF7 breast,< 21.8 nM
same,TGI,MCF7 breast,10500 nM
same,GI50,MDA-MB-231 breast,25.7 nM
same,TGI,MDA-MB-231 breast,8300 nM
same,GI50,MDA-MB-435,< 17.6 nM
same,TGI,MDA-MB-435,797 nM
same,GI50,MOLT-4 leukemia,< 17.8 nM
same,TGI,MOLT-4 leukemia,202 nM
same,GI50,NCI-H226 lung,240 nM
same,TGI,NCI-H226 lung,706 nM
same,GI50,NCI-H23 lung,64.6 nM
same,TGI,NCI-H23 lung,598 nM
same,GI50,NCI-H460 lung,112 nM
same,TGI,NCI-H460 lung,11700 nM
same,GI50,NCI-H522 lung,< 15 nM
same,TGI,NCI-H522 lung,< 23.2 nM
same,GI50,NCI/ADR-RES ovarian,130 nM
same,TGI,NCI/ADR-RES ovarian,11400 nM
same,GI50,OVCAR-3 ovarian,75.4 nM
same,TGI,OVCAR-3 ovarian,10900 nM
same,GI50,OVCAR-4 ovarian,34.9 nM
same,TGI,OVCAR-4 ovarian,1530 nM
same,GI50,OVCAR-5 ovarian,57.2 nM
same,TGI,OVCAR-5 ovarian,11200 nM
same,GI50,OVCAR-8 ovarian,41.6 nM
same,TGI,OVCAR-8 ovarian,15500 nM
same,GI50,PC-3 prostate,31.3 nM
same,TGI,PC-3 prostate,3810 nM
same,GI50,RPMI-8226 leukemia,19.5 nM
same,TGI,RPMI-8226 leukemia,101 nM
same,GI50,RXF 393 renal,< 13.6 nM
same,TGI,RXF 393 renal,35.4 nM
same,GI50,SF-268 CNS,< 18 nM
same,TGI,SF-268 CNS,3680 nM
same,GI50,SF-295 CNS,79.9 nM
same,TGI,SF-295 CNS,1920 nM
same,GI50,SF-539 CNS,74.5 nM
same,TGI,SF-539 CNS,242 nM
same,GI50,SK-MEL-2 melanoma,79.8 nM
same,TGI,SK-MEL-2 melanoma,269 nM
same,GI50,SK-MEL-28 melanoma,22.6 nM
same,TGI,SK-MEL-28 melanoma,210 nM
same,GI50,SK-MEL-5 melanoma,153 nM
same,TGI,SK-MEL-5 melanoma,552 nM
same,GI50,SK-OV-3 ovarian,106 nM
same,TGI,SK-OV-3 ovarian,11500 nM
same,GI50,SN12C renal,< 19.9 nM
same,TGI,SN12C renal,12300 nM
same,GI50,SNB-19 CNS,24.4 nM
same,TGI,SNB-19 CNS,12600 nM
same,GI50,SNB-75 CNS,22.3 nM
same,TGI,SNB-75 CNS,138 nM
same,GI50,SR leukemia,< 29.4 nM
same,TGI,SR leukemia,3210 nM
same,GI50,SW-620 colon,< 13.5 nM
same,TGI,SW-620 colon,12100 nM
same,GI50,T-47D breast,31.9 nM
same,TGI,T-47D breast,2690 nM
same,GI50,TK-10 renal,45.6 nM
same,TGI,TK-10 renal,11900 nM
same,GI50,U251 CNS,47.4 nM
same,TGI,U251 CNS,10700 nM
same,GI50,UACC-257 melanoma,17 nM
same,TGI,UACC-257 melanoma,82.6 nM
same,GI50,UACC-62 melanoma,42.7 nM
same,TGI,UACC-62 melanoma,400 nM

# Reference: PubChem BioAssay (NCI)
